Entries after “also recorded” stand apart in the source; their conditions may differ.
Key:
[1] = comparison value; cited from earlier work
CaCo-2 cells = assay: Cellular uptake of magnesium in CaCo-2 cells; assay type: cell-based, human; settings: incubation time 1 hr, samples contain ~8% magnesium citrate

Row | Compound | water solubility of free ligand [1] [g/100 mL] | solubility (Solubility in water; Example 3 product) [g/100 mL H2O] | solubility relative to that of the free ligand (Solubility in water; complex vs. its ligand (maltol or ethylmaltol), water) | solubility (Solubility in water; triplicate independent runs) | cellular uptake of magnesium (CaCo-2 cells)
1 | CCc1occc(=O)c1O [ethylmaltol] | 5.84 |  |  |  | 
2 | Cc1occc(=O)c1O [maltol, 3-HYDROXY-2-METHYL-4H-PYRAN-4-ONE] | 1.2 |  |  |  | 
3 | magnesium ethylmaltol [Complex 2] |  | 26.8 | approximately 4.9 × | 28.4±0.86 g per 100 mL of H2O | substantial uptake of magnesium; also recorded: slightly greater uptake than Complex 1; also recorded: confirmed cellular entry
4 | magnesium maltol [Complex 1] |  |  |  |  | substantial uptake of magnesium; also recorded: confirmed cellular entry
